The test system of data set [1] is MV-522 Human Lung Tumor. Nature of the data set: Oxaliplatin, Paclitaxel and Tirapazamine vs MV-522 Human Lung Tumor Xenograft (Example 4). The note with it: for % Tumor Growth Inhibition (TGI) / Actual Tumor Wt. (Mean ± SEM) / Weight Change (Day 6) / # of Toxic Deaths / Mice with Complete Shrinkage / Mice with partial Tumor Shrinkage: oxaliplatin 15 mg/kg (MTD), paclitaxel 20 mg/kg, tirapazamine 70 mg/kg, i.p., qdx1; for % Tumor Growth Inhibition (TGI): in the animals without shrinkage; for Actual Tumor Wt. (Mean ± SEM) / Weight Change (Day 6): n=8; for # of Toxic Deaths / Mice with Complete Shrinkage / Mice with partial Tumor Shrinkage: number of 8 mice; for antitumor efficacy (in words): oxaliplatin experiment. As to the method: (§1) Nude mice weighing approximately 20 g were implanted s.c. by trocar with fragments of MV-522 human lung carcinomas harvested from s.c. growing tumors in nude mice hosts. When tumors were approximately 5 mm×5 mm in size (usually ten days after inoculation), the animals were pair-matched into treatment and control groups. Each group contained 8 tumored mice, each of which was ear-tagged and followed individually throughout the experiment. Tirapazamine was administered three hours prior to oxaliplatin, carboplatin and paclitaxel. The route and schedule for all drugs was i.p., qdxl.
(§2) Mice were weighed twice weekly, and tumor measurements were taken by calipers twice weekly, starting on Day 1. These tumor measurements were converted to mg tumor weight by a well-known formula, L×W^2 /2. The experiment was terminated when control tumors reached a size of 1 gram. Upon termination, all mice were weighed, sacrificed, and their tumors excised. Tumors were weighed, and the mean tumor weight per group was calculated.
(§3) With these agents, the final weight of a given tumor was subtracted from its own weight at the start of treatment on Day 1. This difference divided by the initial tumor weight is the % shrinkage. A mean % tumor shrinkage can be calculated from data from the mice in a group that experienced tumor regressions. If the MV-522 tumor completely disappeared in a mouse, this was considered a complete regression or complete tumor shrinkage.
Paclitaxel and tirapazamine were given at doses of 20 mg/kg and 70 mg/kg respectively (i.p.; qd×1).

The conditions of data set [2]: cited from earlier work.
Data set [3] concerns MV-522 Human Lung Tumor. The data set can be described thus: Carboplatin, Paclitaxel and Tirapazamine vs MV-522 Human Lung Tumor Xenograft (confirming study, Example 3). The note with it: for Final Tumor Wt. (Mean ± SEM) / Weight Change (Day 6): n=8; for antitumor efficacy (in words): carboplatin experiment / general statement; for Mean % Tumor Shrinkage: mice with partial shrinkage. As to the method: as §1, §2, §3
Paclitaxel and tirapazamine were administered i.p. as a single bolus at doses of 20 mg/kg (2/3 MTD) and 70 mg/kg (MTD) respectively. Carboplatin was given as a single i.p. bolus at doses of 100 mg/kg (MTD) or 50 mg/kg (1/2 MTD).
(In general: A xenograft is tissue or cells of one species grown in another, often human tumour cells in immunodeficient mice.)

Data set [4] concerns mouse SCCVII and other tumors. The note with it: multiple injections in conjunction with fractionated irradiation; cited from earlier work.
The subject of data set [5] is FSaIIC Murine Fibrosarcoma. The note with it: cited from earlier work.
Where [6] appears, read: carboplatin 50 mg/kg (1/2 MTD), paclitaxel 20 mg/kg, tirapazamine 70 mg/kg where combined, i.p., qdx1, in the animals without shrinkage.
Setting [7] is: carboplatin 50 mg/kg (1/2 MTD), paclitaxel 20 mg/kg, tirapazamine 70 mg/kg where combined, i.p., qdx1.
Setting [8] is: carboplatin 50 mg/kg (1/2 MTD), paclitaxel 20 mg/kg, tirapazamine 70 mg/kg where combined, i.p., qdx1, number of 8 mice.
Setting [9] is: carboplatin 100 mg/kg (MTD), paclitaxel 20 mg/kg, tirapazamine 70 mg/kg where combined, i.p., qdx1, in the animals without shrinkage.
Setting [10] is: carboplatin 100 mg/kg (MTD), paclitaxel 20 mg/kg, tirapazamine 70 mg/kg where combined, i.p., qdx1.
Where [11] appears, read: carboplatin 100 mg/kg (MTD), paclitaxel 20 mg/kg, tirapazamine 70 mg/kg where combined, i.p., qdx1, number of 8 mice.
[12] abbreviates: groups without carboplatin, paclitaxel 20 mg/kg, tirapazamine 70 mg/kg, i.p., qdx1.
Where [13] appears, read: groups without carboplatin, paclitaxel 20 mg/kg, tirapazamine 70 mg/kg, i.p., qdx1, number of 8 mice.

Like-named read-outs stand apart in the source and are kept apart here.

Consider `O=C1[O][Pt]2([NH][C@@H]3CCCC[C@H]3[NH]2)[O]C1=O` (relative stereo) [Oxaliplatin, cis-oxalato(trans-1-1,2-cyclohexanediamine) platinum (II)], for which, in the data set on MV-522 Human Lung Tumor [1], the “% Tumor Growth Inhibition (TGI)” value came to 8.2%, the “Actual Tumor Wt. (Mean ± SEM)” value stood at 731.5 ± 62.6 mg, the “Weight Change (Day 6)” value is reported as “+5.2%” and the “# of Toxic Deaths” value was determined as 0. Also, in the data set on MV-522 Human Lung Tumor [1], the “Mice with Complete Shrinkage” value is recorded as 0, the “Mice with partial Tumor Shrinkage” value was 0 and the “antitumor efficacy (in words)” value is reported as “not active”.
As for `N.N.O=C([O-])C1(C(=O)[O-])CCC1.[Pt+2]` [Carboplatin, platinum, diammine [1,1-cyclobutane-dicarboxylato(2)-0,0']-, (SP-4-2)], in data set [2] (1% solution), the “pH of a 1% solution” value is recorded as 5-7. In addition, in data set [2] (compared with cisplatin), the rate of aquation result is recorded as “occurs at a slower rate than in the case of cisplatin”. Also, the solubility in water entry in data set [2] (water) is recorded as “approximately 14 mg/mL”. Also, the “% Tumor Growth Inhibition (TGI)” value is recorded as 22.5% in the data set on MV-522 Human Lung Tumor [3] (setting [6]); 39.7% with MV-522 Human Lung Tumor [3] (setting [9]); “approximately 40%” in the data set on MV-522 Human Lung Tumor [3] (carboplatin 100 mg/kg (MTD), paclitaxel 20 mg/kg, tirapazamine 70 mg/kg where combined, i.p., qdx1, in the animals without shrinkage, listed as carboplatin). In addition, the “Final Tumor Wt. (Mean ± SEM)” value stood at 698.1 ± 160.5 mg in the data set on MV-522 Human Lung Tumor [3] (setting [7]) and 556.5 ± 129.8 mg in the data set with MV-522 Human Lung Tumor [3] (setting [10]). Further, the “Weight Change (Day 6)” value in the data set on MV-522 Human Lung Tumor [3] (setting [7]) is listed as -1.7%; with MV-522 Human Lung Tumor [3] (setting [10]), -1.5%. In addition, the “# of Toxic Deaths” value in the data set with MV-522 Human Lung Tumor [3] (setting [8]) and in the data set on MV-522 Human Lung Tumor [3] (setting [11]) was 0 throughout. The “Mice with Complete Shrinkage” value in the data set with MV-522 Human Lung Tumor [3] (setting [8]) and with MV-522 Human Lung Tumor [3] (setting [11]) was 0 throughout. The “Mice with partial Tumor Shrinkage” value in the data set with MV-522 Human Lung Tumor [3] (setting [8]) and with MV-522 Human Lung Tumor [3] (setting [11]) was 0 each time.
Take `CC(=O)OC1C(=O)C2(C)C(O)CC3OCC3(OC(C)=O)C2C(OC(=O)c2ccccc2)C2(O)CC(OC(=O)C(O)C(NC(=O)c3ccccc3)c3ccccc3)C(C)=C1C2(C)C` [Paclitaxel, 5β,20-Epoxy-1,2α,4,7β,10β,13α-hexahydroxytax-11-en-9-one 4,10-diacetate 2-benzoate 13-ester with (2R, 3S)-N-benzoyl-3-phenylisoserine]: the “solubility in water (in words)” value in data set [2] (water) is “insoluble in water”. Further, in the data set on MV-522 Human Lung Tumor [1], the “% Tumor Growth Inhibition (TGI)” value amounted to 30.9%, the “Actual Tumor Wt. (Mean ± SEM)” value came to 570.5 mg, the “Weight Change (Day 6)” value was “+0.9%” and the “# of Toxic Deaths” value turned out to be 1. In the data set on MV-522 Human Lung Tumor [1], the “Mice with Complete Shrinkage” value was determined as 0 and the “Mice with partial Tumor Shrinkage” value amounted to 0. For the same compound, in the data set with MV-522 Human Lung Tumor [3] (setting [12]), the “Final Tumor Wt. (Mean ± SEM)” value turned out to be 552.9 ± 68.6 mg and the “Weight Change (Day 6)” value is given as “+0.4%”. Moreover, in the data set on MV-522 Human Lung Tumor [3] (setting [13]), the “# of Toxic Deaths” value came to 1, the “Mice with Complete Shrinkage” value was determined as 0 and the “Mice with partial Tumor Shrinkage” value is given as 0. Moreover, in the data set on MV-522 Human Lung Tumor [3] (groups without carboplatin, paclitaxel 20 mg/kg, tirapazamine 70 mg/kg, i.p., qdx1, number of 8 mice, listed as paclitaxel), the “# of Toxic Deaths” value is reported as “one toxic death”.
For the compound `Nc1n[n+]([O-])c2ccccc2[n+]1[O-]` [Tirapazamine, 3-amino-1,2,4-benzotriazine 1,4-dioxide], the “tumor cell kill with fractionated irradiation” value in data set [4] was “kills hypoxic cells, increases tumor cell kill while sparing normal tissue”. Further, in the data set on MV-522 Human Lung Tumor [1], the “% Tumor Growth Inhibition (TGI)” value is given as 2.5%, the “Actual Tumor Wt. (Mean ± SEM)” value is listed as 769.1 ± 73.0 mg, the “Weight Change (Day 6)” value is recorded as -6.9% and the “# of Toxic Deaths” value is listed as 0. Also, in the data set on MV-522 Human Lung Tumor [1], the “Mice with Complete Shrinkage” value is listed as 0, the “Mice with partial Tumor Shrinkage” value turned out to be 0 and the “antitumor efficacy (in words)” value is on record as “not active”. The “antitumor efficacy (in words)” value with MV-522 Human Lung Tumor [3] is “not active as a single agent”. For the same compound, in the data set on MV-522 Human Lung Tumor [3] (setting [12]), the “% Tumor Growth Inhibition (TGI)” value worked out at 5.7%, the “Final Tumor Wt. (Mean ± SEM)” value was determined as 835.3 ± 111.2 mg and the “Weight Change (Day 6)” value is on record as -1.7%. Also, the “# of Toxic Deaths” value in the data set with MV-522 Human Lung Tumor [3] (setting [13]) came to 0. Further, in the data set on MV-522 Human Lung Tumor [3] (ip, 70 mg/kg), the “Mice with Complete Shrinkage” value stood at 0 and the “Mice with partial Tumor Shrinkage” value is given as 0. The “dose enhancement / cytotoxic effect in combination” value in data set [5] (given just before single-dose cyclophosphamide, carmustine or melphalan) is given as “marked dose enhancement leading to synergistic cytotoxic effects on tumor cells”. In addition, the “dose enhancement / cytotoxic effect in combination” value in data set [5] (given just prior to single-dose cisplatin) is “additive effect, except at the highest dose level of cisplatin”.
As for Paclitaxel + Carboplatin, the “% Tumor Growth Inhibition (TGI)” value with MV-522 Human Lung Tumor [3] (setting [6]) turned out to be 49.8%; with MV-522 Human Lung Tumor [3] (setting [9]) it was 68.8%. Besides, the results for the “Final Tumor Wt. (Mean ± SEM)” value in the data set with MV-522 Human Lung Tumor [3] (setting [7]) and with MV-522 Human Lung Tumor [3] (setting [10]) were 474.0 ± 93.5 mg and 241.4 ± 70.3 mg, respectively. Further, the “Weight Change (Day 6)” value in the data set with MV-522 Human Lung Tumor [3] (setting [7]) was “+1.7%”; in the data set with MV-522 Human Lung Tumor [3] (setting [10]), -1.3%. Moreover, the “# of Toxic Deaths” value in the data set with MV-522 Human Lung Tumor [3] (setting [8]) and in the data set with MV-522 Human Lung Tumor [3] (setting [11]) was 0 each time. Moreover, the “Mice with Complete Shrinkage” value in the data set with MV-522 Human Lung Tumor [3] (setting [8]) and with MV-522 Human Lung Tumor [3] (setting [11]) was 0 in each case. Moreover, the “Mice with partial Tumor Shrinkage” value is listed as 0 in the data set with MV-522 Human Lung Tumor [3] (setting [8]); 2 in the data set with MV-522 Human Lung Tumor [3] (setting [11]); “two” in the data set with MV-522 Human Lung Tumor [3] (carboplatin 100 mg/kg (MTD), paclitaxel 20 mg/kg, tirapazamine 70 mg/kg where combined, i.p., qdx1, number of 8 mice, listed as paclitaxel-high dose carboplatin). Also, the “Mean % Tumor Shrinkage” value with MV-522 Human Lung Tumor [3] (setting [10]) turned out to be 53.0%; in the data set on MV-522 Human Lung Tumor [3] (carboplatin 100 mg/kg (MTD), paclitaxel 20 mg/kg, tirapazamine 70 mg/kg where combined, i.p., qdx1, listed as paclitaxel-high dose carboplatin) it was 53%. Also, the “antitumor efficacy (in words)” value in the data set with MV-522 Human Lung Tumor [3] is “even more effective”.
